From PMC9960553, ““Dual Anta-Inhibitors” of the A2A Adenosine Receptor and Casein Kinase CK1delta: Synthesis, Biological Evaluation, and Molecular Modeling Studies” (Pharmaceuticals, 2023)
Values joined by “and” are separate entries in the source; they are usually repeats but may differ in a detail not shown here. Equal entries are not always repeated.

How the values were obtained:
human recombinant A3AR = target: T1, human recombinant A3AR (Homo sapiens, UniProt P0DMS8); test: [3H]HEMADO displacement binding in CHO cell membranes; details: mean ± standard error, read-out: KiA3
T1 construct: expressed in transfected cells; host or cells: CHO cells (membranes)
T1 sequence (P0DMS8 1-318): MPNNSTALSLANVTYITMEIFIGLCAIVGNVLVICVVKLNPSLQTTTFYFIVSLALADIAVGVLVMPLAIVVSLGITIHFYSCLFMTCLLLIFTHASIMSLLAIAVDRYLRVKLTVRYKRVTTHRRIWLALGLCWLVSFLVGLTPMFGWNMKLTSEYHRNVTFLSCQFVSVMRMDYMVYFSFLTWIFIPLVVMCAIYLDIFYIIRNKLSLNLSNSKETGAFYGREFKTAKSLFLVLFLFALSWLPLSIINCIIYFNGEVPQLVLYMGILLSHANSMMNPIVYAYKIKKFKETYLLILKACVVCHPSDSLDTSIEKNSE
Method: (§1) Compounds 5, 6, 8–12, 15–21, and 23–25 were evaluated in binding studies at human recombinant A1, A2A, and A3 ARs, stably transfected in Chinese hamster ovary (CHO) cells. [^3H]CCPA (2-chloro-N^6-cyclopentylAdo), [^3H]NECA (5’-N-ethylcarboxamidoAdo), and [^3H]HEMADO (2-hexynyl-N^6-methylAdo) were used as the, respective, radioligands. All compounds were also tested at the A2BARs by inhibition of NECA-stimulated adenylyl cyclase activity, using the GloSensor cAMP assay, but none of them were active at a concentration up to 30 μM [35]. The results, together with the data of the reference adenine derivative 1, are reported in Table 2 as Ki values in μM (± standard errors). In the table, the IC50 values (μM) of the CK1δ inhibitory activity are also indicated. […] We called the compounds endowed with receptor antagonist behavior combined with an enzyme inhibitory activity “dual anta-inhibitors”.
(§2) All of the pharmacological methods followed the procedures as described earlier. In brief, the membranes for radioligand binding were prepared from CHO cells stably transfected with human adenosine receptor subtypes through two centrifugations at different speeds. The first low-speed […] centrifugation allowed for the removal of cell fragments and nuclei, while the second, performed at high speed (100,000× g), allowed for the precipitation of the crude membrane fractions. The resulting membrane pellet was resuspended in the buffer used for the respective binding experiments, frozen in liquid nitrogen, and stored in aliquots at −80 °C.
(§3) The binding affinity of the novel compounds was evaluated using radioligand competition experiments in CHO cells stably expressing hA1AR, hA2AAR, hA3AR subtypes, as early described. Results were expressed as Ki values (dissociation constants), which were calculated with the program GraphPad (GraphPad Software, San Diego, CA, USA). Each concentration was tested three–five times in duplicate and the values given as the mean ± standard error (S.E.). The potency of compounds at the hA2BAR (expressed on CHO cells) was determined through a GloSensor cAMP Assay.

human recombinant A1AR = target: T2, human recombinant A1AR (Homo sapiens, UniProt P30542); test: [3H]CCPA displacement binding in CHO cell membranes; details: mean ± standard error, read-out: KiA1
T2 construct: expressed in transfected cells; host or cells: CHO cells (membranes)
T2 sequence (P30542 1-326): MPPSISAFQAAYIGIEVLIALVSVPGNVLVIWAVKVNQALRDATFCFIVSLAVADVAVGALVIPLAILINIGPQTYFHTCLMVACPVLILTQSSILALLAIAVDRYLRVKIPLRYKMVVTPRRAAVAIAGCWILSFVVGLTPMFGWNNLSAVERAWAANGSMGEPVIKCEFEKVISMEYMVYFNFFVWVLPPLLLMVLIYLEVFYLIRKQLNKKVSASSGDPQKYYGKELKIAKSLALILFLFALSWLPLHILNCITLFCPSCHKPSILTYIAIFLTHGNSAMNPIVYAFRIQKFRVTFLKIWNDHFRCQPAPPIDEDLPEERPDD
Method: as §1, §2, §3

human recombinant A2AAR = target: T3, human recombinant A2AAR (Homo sapiens, UniProt P29274); test: [3H]NECA displacement binding in CHO cell membranes; details: mean ± standard error, read-out: KiA2A
T3 construct: expressed in transfected cells; host or cells: CHO cells (membranes)
Method: as §1, §2, §3

truncated CK1δ = target: T4, truncated CK1δ (Homo sapiens, UniProt P48730); test: CK1δ luminescent kinase assay (Kinase-Glo); assay type: biochemical; details: for remaining activity at 10 µM: read-out: % Residual Activity at 10 μM ± sd; for remaining activity at 40 µM: compound at 40 μM, read-out: % Residual Activity at 40 μM ± sd; for IC50: truncated CK1δ, ATP 2 μM, read-out: IC50 (μM), CK1δ inhibition
T4 construct: recombinant human, GST-tagged, aa 1-294; GST; purchased Merck Millipore, Merck KGaA, Darmstadt, Germany
T4 sequence (P48730 1-294): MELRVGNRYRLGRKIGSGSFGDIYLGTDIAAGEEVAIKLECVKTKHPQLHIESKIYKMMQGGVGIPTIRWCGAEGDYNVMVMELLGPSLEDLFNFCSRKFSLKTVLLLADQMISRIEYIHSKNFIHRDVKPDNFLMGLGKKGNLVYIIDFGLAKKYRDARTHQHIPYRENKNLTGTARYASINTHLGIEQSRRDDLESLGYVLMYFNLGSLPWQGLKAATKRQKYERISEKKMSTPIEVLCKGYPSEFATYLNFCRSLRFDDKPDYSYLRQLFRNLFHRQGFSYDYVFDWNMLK
Method: Luminescent assays were performed in white 96-well plates in a 40 μL final volume with buffer containing 50 mM HEPES (pH 7.5), 1 mM EDTA, 1 mM EGTA, and 15 mM MgCl2. In a typical assay, 10 μL of inhibitor solution (desired concentrations were obtained by diluting a starting 10 mM solution in DMSO) and 10 μL of enzyme solution were added to the well, followed by 20 μL of assay buffer containing casein substrate (Sigma-Aldrich, Merck KGaA, Darmstadt, Germany, casein solution from bovine milk, 5% in water) and ATP, at a final concentration of 0.05% and 2 μM, respectively. […] After 60 min of incubation at 30 °C, the enzymatic reactions were stopped with the addition of 40 μL of KinaseGlo reagent. […] Data were analyzed using Excel and GraphPad Prism software (version 8.0).

[1] = CK1δ residual activity, compound at 10 μM

T3 sequence (P29274 whole entry): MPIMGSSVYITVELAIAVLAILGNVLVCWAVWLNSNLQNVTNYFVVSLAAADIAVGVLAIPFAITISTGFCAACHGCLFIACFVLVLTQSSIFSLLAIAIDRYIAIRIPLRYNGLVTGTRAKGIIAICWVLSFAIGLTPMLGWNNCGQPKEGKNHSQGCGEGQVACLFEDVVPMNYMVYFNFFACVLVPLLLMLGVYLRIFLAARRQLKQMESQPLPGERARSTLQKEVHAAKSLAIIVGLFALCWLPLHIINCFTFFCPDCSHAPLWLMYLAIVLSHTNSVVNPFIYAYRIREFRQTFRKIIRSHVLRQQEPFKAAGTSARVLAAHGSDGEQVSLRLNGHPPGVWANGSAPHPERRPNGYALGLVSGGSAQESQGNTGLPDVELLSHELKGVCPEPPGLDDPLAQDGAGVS

SMILES | Ki (human recombinant A3AR) [µM] | Ki (human recombinant A1AR) [µM] | Ki (human recombinant A2AAR) [µM] | melting point [°C] | remaining activity at 10 µM (truncated CK1δ; [1]) [%] | remaining activity at 40 µM (truncated CK1δ; CK1δ residual activity) [%] | IC50 (truncated CK1δ) | % Residual Activity at 10 μM ± sd (truncated CK1δ; CK1δ residual activity, compound at 10 μM, 10 µM) [%]
Nc1nc(Cl)nc2c1ncn2C1CCCC1 [Compound 1, 2-chloro-9-cyclopentyl-9H-purin-6-amine] | 0.631 ± 0.062 | 1.89 ± 0.16 | 0.465 ± 0.129 | 121 to 122 | 13 ± 7.4 | 0.7 ± 0.4 | 5.25 µM and 5.2 µM | –
Nc1nc(Cl)nc2c1ncn2C1CCC1 [Compound 5, 2-chloro-9-cyclobutyl-9H-purin-6-amine] | – | 1.53 ± 0.265 | 0.558 ± 0.151 | 117 to 119 | 37 ± 3.8 | 43 ± 3.2 | 5.25 ± 0.9 µM | –
Nc1nc(Cl)nc2c1ncn2C1CCCCC1 [Compound 6, 2-chloro-9-cyclohexyl-9H-purin-6-amine] | – | – | – | 125 to 126 | > 50 | 30 ± 0.2 | > 10 µM | 52 ± 3.0
Clc1nc(NCc2nc3ccccc3[nH]2)c2ncn(C3CCCC3)c2n1 [Compound 15, N-((1H-benzo[d]imidazol-2-yl)methyl)-2-chloro-9-cyclopentyl-9H-purin-6-amine] | 1.138 ± 0.004 | > 30 | 3.26 ± 0.626 | – | 24 ± 14 | 22 ± 13 | 1.53 ± 0.4 µM | –
c1ccc(CNc2nc(NCc3nc4ccccc4[nH]3)c3ncn(C4CCCC4)c3n2)cc1 [Compound 16, N^6-((1H-benzo[d]imidazol-2-yl)methyl)-N^2-benzyl-9-cyclopentyl-9H-purine-2,6-diamine] | 0.432 ± 0.025 | > 30 | 0.718 ± 0.149 | – | 26 ± 7.6 | 46 ± 31 | 4.76 ± 0.3 µM | –
O=C(CNc1nc(Cl)nc2c1ncn2C1CCCC1)NCc1ccccc1 [Compound 20] | – | > 30 | > 30 | – | 32 ± 16 | 29 ± 12 | 1.87 ± 0.2 µM | –
N#CCNc1nc(Cl)nc2c1ncn2C1CCCC1 [Compound 21, 2-((2-Chloro-9-cyclopentyl-9H-purin-6-yl)amino)acetonitrile] | 5.96 ± 1.02 | 8.66 ± 1.52 | 3.48 ± 0.312 | – | 13 ± 24 | 25 ± 9.6 | 0.36 ± 0.1 µM | –
Clc1nc(NCCc2ccccc2)c2ncn(C3CCCC3)c2n1 [Compound 23, 2-chloro-N^6-(2-phenylethyl)-9-cyclopentyladenine] | 0.151 ± 0.015 | 1.34 ± 0.279 | 1.17 ± 0.037 | 100 to 101 | 27 ± 20 | 14 ± 9.7 | 0.66 ± 0.2 µM | –

Other lines, results leading:

Ki (human recombinant A3AR) [µM] | Ki (human recombinant A1AR) [µM] | Ki (human recombinant A2AAR) [µM] | melting point [°C] | remaining activity at 10 µM (truncated CK1δ; [1]) [%] | remaining activity at 40 µM (truncated CK1δ; CK1δ residual activity) [%] | IC50 (truncated CK1δ) | % Residual Activity at 10 μM ± sd (truncated CK1δ; CK1δ residual activity, compound at 10 μM, 10 µM) [%] | SMILES
0.14 ± 0.035 | 0.118 ± 0.01 | 0.007 | 152 to 153 | – | 86 ± 1.6 | > 40 µM | – | Nc1nc(Cl)nc2c1nc(-c1ccco1)n2C1CCCC1 [Compound 8, 2-chloro-9-cyclopentyl-8-(furan-2-yl)-9H-purin-6-amine]
0.017 ± 0.002 | 0.053 ± 0.009 | 0.036 ± 0.009 | 158 to 159 | – | 90 ± 4.6 | > 40 µM | – | Nc1nc(Cl)nc2c1nc(-c1cccs1)n2C1CCCC1 [Compound 9, 2-chloro-9-cyclopentyl-8-(thiophen-2-yl)-9H-purin-6-amine]
0.298 ± 0.047 | 3.96 ± 0.8 | 0.157 ± 0.04 | – | 48 ± 3.5 | 30 ± 4.1 | 5.3 ± 1 µM | – | Nc1nc(NCc2ccccc2)nc2c1ncn2C1CCCC1 [Compound 10, N^2-benzyl-9-cyclopentyl-9H-purine-2,6-diamine]
0.049 ± 0.008 | 0.58 ± 0.046 | 0.012 ± 0.003 | – | – | 88 ± 2.9 | > 40 µM | – | Nc1nc(NCCc2ccccc2)nc2c1ncn2C1CCCC1 [Compound 11, 9-Cyclopentyl-N^2-phenethyl-9H-purine-2,6-diamine]
> 30 | > 30 | > 30 | – | 38 ± 6 | 29 ± 3.9 | 3.37 ± 2.5 µM | – | O=C(NCc1ccccc1)Nc1nc(Cl)nc2c1ncn2C1CCCC1 [Compound 18, 1-Benzyl-3-(2-chloro-9-cyclopentyl-9H-purin-6-yl)urea]
14.8 ± 3.01 | 20.7 ± 1.87 | 13.5 ± 0.98 | – | 23 ± 2.4 | 44 ± 2.6 | 2.55 ± 0.2 µM | – | COC(=O)CNc1nc(Cl)nc2c1ncn2C1CCCC1 [Compound 19, Methyl (2-chloro-9-cyclopentyl-9H-purin-6-yl)glycinate]
1.27 ± 0.289 | 0.692 ± 0.088 | 3.34 ± 0.749 | 177 to 179 | 26 ± 6.7 | 11 ± 19 | 0.73 ± 0.1 µM | – | Clc1nc(NCCCc2ccccc2)c2ncn(C3CCCC3)c2n1 [Compound 24, 2-chloro-9-cyclopentyl-N-(3-phenylpropyl)-9H-purin-6-amine]
– | 10.8 ± 2.04 | 2.65 ± 0.381 | – | 31 ± 12 | 14 ± 4.3 | 1.69 ± 1 µM | – | Clc1ccc(CCNc2nc(Cl)nc3c2ncn3C2CCCC2)cc1 [Compound 25, 2-Chloro-N-(4-chlorophenethyl)-9-cyclopentyl-9H-purin-6-amine]
